Drawing on ChEMBL document CHEMBL5726535, “Use of agonists of formyl peptide receptor 2 for treating ocular inflammatory diseases” (2019), this text covers EC50 for 1 molecule.

The target of this test is T1, N-formyl peptide receptor 2 (Homo sapiens, UniProt P25090).
T1 sequence (P25090 whole entry): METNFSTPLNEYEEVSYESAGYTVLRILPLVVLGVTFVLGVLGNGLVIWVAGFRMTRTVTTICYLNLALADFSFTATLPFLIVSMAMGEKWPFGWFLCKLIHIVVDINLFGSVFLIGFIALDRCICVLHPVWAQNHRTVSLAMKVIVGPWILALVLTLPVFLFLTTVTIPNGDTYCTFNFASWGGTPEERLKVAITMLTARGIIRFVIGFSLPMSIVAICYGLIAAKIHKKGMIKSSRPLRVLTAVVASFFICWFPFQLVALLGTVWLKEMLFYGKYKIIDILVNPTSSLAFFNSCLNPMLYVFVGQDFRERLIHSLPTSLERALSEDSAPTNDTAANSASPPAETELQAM
Kind of test: FLIPR: HEK-Gα16 cells stably expressing the human FPR2 receptor was utilized. Cells were plated into 384-well poly-D-lysine coated plates at a density of 18,000 cells per well one day prior to use. The growth media was DMEM medium supplemented with 10% fetal bovine serum (FBS), 1% antibiotic-antimycotic, 50 μg/ml hygromycin, and 400 μg/ml geneticin. On the day of the experiment, the cells were ….

Each structure is given as a SMILES string.

Description: FLIPR: HEK-Gα16 cells stably expressing the human FPR2 receptor was utilized. Cells were plated into 384-well poly-D-lysine coated plates at a density of 18,000 cells per well one day prior to use. The growth media was DMEM medium supplemented with 10% fetal bovine serum (FBS), 1% antibiotic-antimycotic, 50 μg/ml hygromycin, and 400 μg/ml geneticin. On the day of the experiment, the cells were washed twice with Hank's Balanced Salt Solution supplemented with 20 mM HEPES (HBSS/hepes buffer). The cells were then dye loaded with 2 μM Fluo-4 diluted in the HBSS/Hepes buffer and incubated at 37° C. for 40 minutes. Extracellular dye was removed by washing the cell plates four times prior to placing the plates in the FLIPR (Fluorometric Imaging Plate Reader, Molecular Devices). Ligands were diluted in HBSS/Hepes buffer and prepared in 384-well microplates.

Regarding `NC(=O)C1C(C(=O)Nc2ccc(Br)cc2)C2CCC1C21CC1` (single isomer, unassigned), the EC50 was below 1 nM.
